110 molecules from a melting point compilation (Tetko et al.) can be followed below.

The molecule `O=C(C1=NOC2C(=O)N(c3ccccc3[N+](=O)[O-])C(=O)C12)c1ccc(Cl)cc1` (stereo not given) yielded a melting point of 173 °C. For `N#Cc1ccnc(N)c1` the value was 150 °C; for `CC(=O)Nc1ccccc1N=Nc1ccccc1`, 123 °C; for `CC(=O)C1(C)CCC2C3C=C(C)C4=CC(=O)CCC4(C)C3CCC21C` (stereo not given), 144 °C. In the case of `CC(O)CN(CCO)CCO` (stereo not given) it was 31.5 to 36 °C; in that of `CC(C)(C)OC(=O)N1CCNCC1`, 47 to 49 °C; in that of `S=C1NCCc2ccccc21`, 97 to 99 °C. In the case of `Oc1cc2c(cc1O)CCN=C2` it was 244 to 248 °C. In turn, `O=C(Cl)c1cc2ccccc2n1S(=O)(=O)c1ccccc1` gave a melting point of 127 to 128 °C. For `CN(C)C(=O)c1ccccc1` the value was 44 °C. With `O=C=Nc1ccc(Cl)c(C(F)(F)F)c1`, the melting point was in the range of 35 to 36 °C. In the case of `O=C1OC(c2ccccc2)=NC1=Cc1ccc(Cl)cc1` it was 192 to 193 °C; in that of `Cc1ccncc1S(=O)(=O)O`, 300 °C. For `C1CCSSC1` the value was 32.5 °C; for `COc1ccc(NC(=S)c2ccccc2)cc1`, 133 °C.

Regarding `BrC1Cc2ccccc2C1Br` (stereo not given), the melting point amounted to 32 °C. As for `S=C(NC1CCCCC1)C(=S)NC1CCCCC1`, the melting point fell in the range of 150 to 152 °C. The molecule `CCCOc1ccc(O)cc1` yielded a melting point of 56.5 °C.

`CC(C)N1C(=O)c2ccccc2NS1(=O)=O`: the melting point turned out to be 140 °C. In the case of `CCOC(=O)C(=CNc1cc(C)nn1C)C(=O)OCC` it was 85 to 88 °C; in that of `NC(=O)c1cncc(Br)c1`, 226 °C; in that of `CC1CCC(C(C)C)C(OC(=O)C2=CCC(C(=O)OC3CC(C)CCC3C(C)C)CC2)C1` (stereo not given), 125 °C.

For `O=C(O)C=Cc1ccc(N2CCCC2)c([N+](=O)[O-])c1`, the melting point lay in the range of 243 to 245 °C. For `NC(CO)(Cc1ccccc1)C(=O)O` (racemic) the value was 245 to 263 °C. For `CC1CCC(C)(COC(=O)c2ccccc2C(=O)OCC2(C)CCC(C)C2(C)C)C1(C)C` (stereo not given), the melting point came out at 80 °C. Consider `COC(=O)c1cnc(SCC(=O)NC(=O)Nc2ccccc2)n1C`, for which the melting point lay within 204 to 205 °C.

Turning to `CC(C)N(C1=NC(=Cc2ccccc2)C(=O)N1c1ccccc1)C(C)C`, the melting point was 167 °C. For `Cn1cncc1C=O` the value was 55 °C; for `c1ccc(Oc2nc(-c3ccccc3)nc3nc4ccccc4n23)cc1`, 247 °C; for `CCCCCCCCCCCCCCCC(=O)OCC`, 24 °C.

`CC1OC(n2ccc(NC(=O)c3ccc(NC(=O)C(C)(N)CO)cc3)nc2=O)CCC1OC1OC(C)C(N(C)C)C(O)C1O` (stereo not given) yielded a melting point of 167 °C. For `Cc1ccc(N(C)C(=S)Cl)cc1`, the melting point lay in the range of 56 to 59 °C. `Cc1ccc(S(=O)(=O)N/N=C2\C=CC(C)(c3ccccc3)CC2)cc1` (stereo not given) showed a melting point of 147 °C. For `COCCNc1c(C=O)c(=O)n(C)c(=O)n1C` the value was 137 °C.

As for `Nc1cccnc1O`, the melting point is 118 to 130 °C. For `CC(C)(C)OC(=O)C(C)(C)Sc1ccc(Cl)cc1` the value was 44 to 46 °C; for `COc1ccc2c(c1)CCc1c-2[nH]c2ccc(OC)cc12`, 194 to 196 °C. For `COC(=O)c1ccc(C(F)(F)F)cc1` the value was 14 °C.

The molecule `CSC(=CC(=C(C#N)C#N)c1ccccc1)SC` had a melting point of 117 to 121 °C.

For the molecule `CCC(=O)NC`, the melting point is -30.9 °C.

On to `C#CC1(O)CCC2C3CCC4CC(O)CCC4(C)C3CCC21C` (stereo not given), for which the melting point was determined as 257 °C. The molecule `Oc1c(Cl)c(Cl)c(O)c(Cl)c1Cl` displayed a melting point of 239 °C. Molecule `COC(=O)C(Cc1ccccc1)NC(=O)C(N)CC(=O)O` (stereo not given) came in with a melting point of 246 °C.

For the molecule `N#CCc1cccc([N+](=O)[O-])c1`, the melting point was 63 °C. For `COc1ccc(C=CC(=O)O)c(Cl)c1OC` the value was 217 to 218 °C; for `Cc1ccc(C(=O)N(C)C)cc1`, 41 °C. For the molecule `CCCCCCC=NO`, the melting point stood at 57.5 °C. In the case of `O=C1C(c2ccccc2)=Nc2cc([N+](=O)[O-])ccc21` it was 185 °C; in that of `Cc1n[nH]c(C)c1Cl`, 118 °C. `NC(=O)NC(CC(=O)O)C(=O)O` (racemic) registered a melting point of 174 to 175 °C. In the case of `NC(=S)Nc1cccc(Cl)c1` it was 137 to 138 °C. For `Cc1ccn2c(=O)c3ccccc3cc2c1` the value was 124 °C; for `Cc1ccc(S(=O)(=O)OCc2c(F)c(F)c(F)c(F)c2F)cc1`, 78 °C; for `CC(=O)N1CCN(c2ccc(O)cc2)CC1`, 183 °C. For `C(=Cc1ccccc1)CCC=Cc1ccccc1` the value was 82 °C; for `NC(=S)c1cccc(Cl)c1Cl`, 121 to 123 °C. In the case of `COC(=O)c1ccc(-c2nc(C)no2)cc1`, the melting point fell in the range of 160 to 163 °C. For `Cc1ccc2[nH]cc(CC(N)C(=O)O)c2c1` (racemic) the value was 280 to 282 °C; for `NNC(=O)c1csc(-c2cccc(Cl)c2Cl)n1`, 230 to 233 °C.

`CNC(=O)c1ccccc1N`: the melting point lay within 75 to 76 °C.

Molecule `O=C1NC(=O)C(=Cc2ccc(-c3ccccc3Br)o2)C(=O)N1` showed a melting point of 255 °C.

For the molecule `CC(=O)N1CCC(c2c[nH]c3ccccc23)CC1`, the melting point lay within 174 to 176 °C. In the case of `CNc1ccccn1` it was 15 °C; in that of `CCOC(=O)c1c(C)[nH]c(=O)[nH]c1=S`, 150 °C. In the case of `O=[N+]([O-])c1ccc(-c2nnc3n2CN(c2ccccc2)CS3)cc1` it was over 320 °C; in that of `CCOC(=O)CN(C(=O)CCl)c1c(CC)cccc1CC`, 50 °C; in that of `O=C(NC1CCCCC1)C(C(F)(F)F)C(F)(F)F`, 190 to 192 °C. `CC(=O)Nc1cc(NC(C)=O)c(C=Cc2ccccc2)c(NC(C)=O)c1C=Cc1ccccc1`: the melting point is 330 °C. Regarding `N#Cc1ccc(N2CCNCC2)cc1`, the melting point is 82 to 84 °C. For `CCCCOC(=O)CC` the value was -75 °C; for `CCOC(=O)[C@H]1CCC(=O)N1`, 49 to 53 °C; for `C=CC(=O)ON1C(=O)CCC1=O`, 69 °C.

Turning to `CN1CCCC1c1cccnc1` (stereo not given), the melting point is -79 °C. For `CS(=O)(=O)c1ccc(O)cc1` the value was 93 °C; for `CCOC(=O)c1[nH]cnc1C`, 204 to 206 °C. For `CC1OC(=O)C(C)C1CC(O)C(C)(O)C1CCC2(O)C3=CC(=O)C4CC(O)C(O)CC4(C)C3CCC12C` (stereo not given) the value was 158 to 160 °C; for `O=C(O)Cc1ccsc1`, 79 °C. In the case of `Cc1nc2ccccc2c(C(=O)O)c1O` it was 200 °C; in that of `Cl/C(=C\c1ccccc1)c1cccc2ccccc12`, 117 °C; in that of `CC12CCC(C1(C)C)C(CC(Br)Cc1ccccc1)(C1(CC(Br)Cc3ccccc3)C(=O)C3(C)CCC1C3(C)C)C2=O` (stereo not given), 215 °C.

Regarding `O=[N+]([O-])c1ccc(N2CCOCC2)cc1`, the melting point was determined as 152 °C.

Molecule `CC(=O)Nc1ccccc1CCNCCc1ccccc1NC(C)=O` showed a melting point of 110 °C. For `C=CC1CN2CCC1CC2C(O)c1ccnc2ccc(O)cc12` (stereo not given) the value was 202 °C; for `CC(C)(C)C(=O)OCC(N)=S`, 84 to 85 °C; for `Cc1cc(N)ccc1I`, 50 to 55 °C. In the case of `COc1ccc2c(=O)n3ccccc3cc2c1` it was 130 °C. In the case of `O=C(O)c1nccc2ccccc12` it was 160 to 165 °C; in that of `COc1nccnc1N(C(C)=O)S(=O)(=O)c1ccc(N)cc1`, 199 °C; in that of `CCCC1Nn2c(nnc2-c2cccc([N+](=O)[O-])c2)S1` (stereo not given), 129 °C. For the molecule `Oc1ccc2ccccc2c1Cc1c(O)ccc2ccccc12`, the melting point was in the range of 188 to 190 °C. For `CCOC(=O)C1=C(C)NC(=O)NC1c1ccco1` (stereo not given) the value was 206 °C; for `OCc1cccnc1N1CCOCC1`, 80 to 83 °C; for `CCc1cc2ccccc2ccc1=O`, 49 °C. For `CCCCOCOCCCC` the value was -58.1 °C; for `N=C(N)N[C@@H](Cc1ccccc1)C(=O)O`, 250 to 253 °C; for `Fc1ccc(Cc2ccc(F)cc2)cc1`, 29 to 30 °C. In turn, `O=C(c1ccc(Br)cc1)[C@H]1CCCC[C@H]1C(=O)O` (relative stereo) displayed a melting point of 171 to 175 °C. For `O=C(Cl)c1ccc(Cl)c([N+](=O)[O-])c1` the value was 53.5 °C.

With `O=C(O)C[C@@H](NC(=O)OCC1c2ccccc2-c2ccccc21)c1ccc(Br)cc1`, the melting point came out at 192 °C. Molecule `COc1cc2c(cc1O)CN(C1CC=CC(=O)C1)CC2` (stereo not given) gave a melting point of 254 to 257 °C. `CCOC(=O)C=P(c1ccccc1)(c1ccccc1)c1ccccc1` registered a melting point of 124 to 129 °C. The molecule `O=C1CCCCC1Cl` (stereo not given) yielded a melting point of 23 °C. The molecule `CCCCC(N)P(=O)(O)O` (stereo not given) displayed a melting point of 267 to 269 °C. In the case of `O=C1C(c2ccccc2)=[N+]([O-])c2ccccc21` it was 186 °C; in that of `CCc1ccc(CCOc2ccc(CC3SC(=O)NC3=O)cc2)nc1` (stereo not given), 184 °C.

`O=C(C(=S)Nc1ccccc1Cl)c1ccccc1` returned a melting point of 119 °C. For `Fc1nccc(Br)c1Br` the value was 76 °C; for `Cn1c(=O)c(C2=NNC(=O)C2=Cc2cccc(Cl)c2)c(O)c2ccccc21`, 265 °C.

`Cn1c(=O)c(C2=NNC(=O)C2=NNc2ncccn2)c(O)c2ccccc21` showed a melting point of 302 °C. The molecule `Nc1c(F)c(F)c(F)c(F)c1F` returned a melting point of 35.5 °C.

The melting point is the temperature, or range, at which the solid turns liquid.
